Assay results: PMC8850549 (Toxicology Reports, 2022)
Where “and” joins values, the source holds several entries; their conditions need not be identical. Equal entries are not always repeated. Entries after “also recorded” stand apart in the source; their conditions may differ. Where two headings read alike, the source gives them in different places.

Legend:
[1] = test system: Salmonella typhimurium TA100; experiment: Bacterial reverse mutation test; assay type: cell-based; conditions: for mutagenic response (increase in mutation frequencies): with rat liver S9, preincubation and plate incorporation
[2] = test system: Salmonella typhimurium TA1535; experiment: Bacterial reverse mutation test; assay type: cell-based; conditions: for mutagenic response (increase in mutation frequencies): with rat liver S9, preincubation and plate incorporation; for fold increase in mutation frequencies: rat liver S9, 5000 μg/plate
E. coli WP2 uvrA = experiment: Bacterial reverse mutation test; assay type: cell-based; conditions: for mutagenic response (increase in mutation frequencies): with rat liver S9, preincubation and plate incorporation
TA1535 = conditions: cited from earlier work
TA98 = experiment: Bacterial reverse mutation test; assay type: cell-based, Salmonella typhimurium; conditions: under any condition (preincubation or plate incorporation, with or without S9)
TA1537 = experiment: Bacterial reverse mutation test; assay type: cell-based, Salmonella typhimurium; conditions: under any condition (preincubation or plate incorporation, with or without S9)
[3] = test system: Salmonella typhimurium and E. coli strains; experiment: Bacterial reverse mutation test; assay type: cell-based; conditions: rat liver S9, solvent water
bacterial mutagenicity = conditions: cited from earlier work
[4] = plate incorporation, solvent DMSO, rat liver S9, at 5000 μg/plate only
[5] = preincubation, solvent water, rat liver S9, 5000 μg/plate

CCCN(CCC)N=O [NDPA, N-nitrosodipropylamine]
mutagenic response (increase in mutation frequencies) [1]: relevant increases | mutagenic response (increase in mutation frequencies) [2]: relevant increases | mutagenic response (increase in mutation frequencies) (E. coli WP2 uvrA): relevant increases

CCN(CC)N=O [NDEA, N-nitrosodiethylamine]
fold increase in mutation frequencies (above threshold) [1, 4]: > 2 fold | fold change with water compared with DMSO as solvent ([1]; preincubation, rat liver S9): no change | fold increase in mutation frequencies [1, 5]: about 4 fold | mutagenic response (increase in mutation frequencies) [1]: exponential increase in mutation frequencies | fold increase in mutation frequencies (above threshold) [2, 4]: > 3 fold | fold change with water compared with DMSO as solvent ([2]; preincubation, rat liver S9): slightly increased fold changes; also recorded: slightly higher mutation frequencies | fold increase in mutation frequencies ([2]; preincubation, solvent DMSO): ~5 fold and 4 fold | fold increase in mutation frequencies ([2]; preincubation, solvent water): ~9 fold | mutagenic response (increase in mutation frequencies) [2]: exponential increase in mutation frequencies | mutagenicity (TA1535; hamster S9): mutagenic | mutagenicity (TA1535; rat S9): not with rat S9 | mutagenic response (TA98): no response | fold increase in mutation frequencies (E. coli WP2 uvrA; plate incorporation, solvent DMSO, rat liver S9, top concentration 5000 μg/plate): 12 fold | fold change with water compared with DMSO as solvent (E. coli WP2 uvrA; preincubation, rat liver S9): slightly increased fold changes; also recorded: slightly higher mutation frequencies | fold increase in mutation frequencies (E. coli WP2 uvrA; preincubation, solvent DMSO, rat liver S9, 5000 μg/plate): ~30 fold | fold increase in mutation frequencies (E. coli WP2 uvrA; [5]): ~39 fold | mutagenic response (increase in mutation frequencies) (E. coli WP2 uvrA): exponential increase in mutation frequencies | mutagenic response (TA1537): no response

CCCCN(CCCC)N=O [NDBA, N-nitrosodibutylamine]
mutagenic response (increase in mutation frequencies) [1]: relevant increases | fold induction, plate incorporation compared with preincubation ([2]; rat liver S9, solvent DMSO): higher fold inductions using the plate incorporation protocol | mutagenic response (increase in mutation frequencies) [2]: relevant increases | fold induction, plate incorporation compared with preincubation (E. coli WP2 uvrA; rat liver S9, solvent DMSO): higher fold inductions using the plate incorporation protocol | mutagenic response (increase in mutation frequencies) (E. coli WP2 uvrA): relevant increases

CN(C)N=O [NDMA, N-nitrosodimethylamine]
mutagenicity (TA1535; hamster S9): mutagenic | mutagenicity (TA1535; rat S9): not with rat S9 | detection of mutagenicity ([3]; plate incorporation protocol): fails; also recorded: no clear positive response | detection of mutagenicity ([3]; preincubation protocol): allows the detection of mutagenicity | detection of bacterial mutagenicity (bacterial mutagenicity; plate incorporation): failed | detection of bacterial mutagenicity (bacterial mutagenicity; preincubation protocol): allowed to detect
